Assay results published in patent US20260027116A1, “Methods of Treating Chronic Graft-Versus-Host Disease Following Allogeneic Hematopoietic Stem Cell Transplantation” (Kadmon Corporation, LLC, priority 2022, published 2026).

What was measured:
lung function = assay: Example 1: percent predicted FVC change from baseline; assay type: in vivo, human; conditions: mean (SD)
Procedure: Change From Baseline in Percent Predicted Forced Vital Capacity (FVC) at Each Specified Time Points. FVC was the total amount of air (in liters) exhaled from the lungs during the lung function test measured by spirometer which assessed the change in lung function related to the disease status. Baseline value was defined as valid and last non-missing value obtained within 28 days prior to participant receiving first study medication. EOT visit was performed within 3 days after the participant's last dose of study drug. […] Analysis was performed on mITT population. Here, ‘number analyzed’=participants with available data for each specified category. Here, ‘0’ in the number analyzed field signifies that none of the participants were available for the analysis at the specified time points.

UGT1A9 = target: T1, UGT1A9 (Homo sapiens, UniProt O60656); assay: enzyme inhibition in vitro; assay type: in vitro ADME
T1 sequence (O60656 26-530): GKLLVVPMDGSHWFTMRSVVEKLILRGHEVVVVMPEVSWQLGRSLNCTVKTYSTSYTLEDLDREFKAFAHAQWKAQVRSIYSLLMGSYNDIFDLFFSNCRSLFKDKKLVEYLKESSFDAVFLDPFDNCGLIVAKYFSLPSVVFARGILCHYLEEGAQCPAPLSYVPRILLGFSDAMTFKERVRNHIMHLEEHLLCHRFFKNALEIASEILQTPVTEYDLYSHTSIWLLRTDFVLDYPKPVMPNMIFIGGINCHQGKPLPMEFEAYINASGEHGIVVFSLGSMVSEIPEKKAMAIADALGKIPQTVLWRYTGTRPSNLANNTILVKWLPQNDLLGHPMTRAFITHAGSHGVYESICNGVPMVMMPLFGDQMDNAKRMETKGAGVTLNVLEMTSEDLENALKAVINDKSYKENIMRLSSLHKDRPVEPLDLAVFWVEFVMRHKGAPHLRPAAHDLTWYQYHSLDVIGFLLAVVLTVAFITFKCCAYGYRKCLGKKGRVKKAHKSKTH

CC(C)NC(=O)COc1cccc(-c2nc(Nc3ccc4[nH]ncc4c3)c3ccccc3n2)c1 [Belumosudil, 2-{3-[4-(1H-indazol-5-ylamino)-2-quinazolinyl]phenoxy}-N-(propan-2-yl) acetamide]
Change From Baseline in Percent Predicted Forced Vital Capacity (FVC) (lung function; Cohort 2: 200 mg BID, Cycle 13, Day 1): −3.3 (15.4) percent predicted FVC
Change From Baseline in Percent Predicted Forced Vital Capacity (FVC) (lung function; Cohort 2: 200 mg BID, Cycle 14, Day 1): 2.0 (— ) percent predicted FVC
Change From Baseline in Percent Predicted Forced Vital Capacity (FVC) (lung function; Cohort 2: 200 mg BID, Cycle 15, Day 1): −3.3 (5.5) percent predicted FVC
Change From Baseline in Percent Predicted Forced Vital Capacity (FVC) (lung function; Cohort 2: 200 mg BID, Cycle 16, Day 1): −6.0 (19.8) percent predicted FVC
Change From Baseline in Percent Predicted Forced Vital Capacity (FVC) (lung function; Cohort 2: 200 mg BID, Cycle 17, Day 1): −3.0 (11.8) percent predicted FVC
Change From Baseline in Percent Predicted Forced Vital Capacity (FVC) (lung function; Cohort 2: 200 mg BID, Cycle 18, Day 1): −7.5 (9.2) percent predicted FVC
Change From Baseline in Percent Predicted Forced Vital Capacity (FVC) (lung function; Cohort 2: 200 mg BID, Cycle 19, Day 1): −5.3 (4.7) percent predicted FVC
Change From Baseline in Percent Predicted Forced Vital Capacity (FVC) (lung function; Cohort 2: 200 mg BID, Cycle 20, Day 1): −10.5 (2.1) percent predicted FVC
Change From Baseline in Percent Predicted Forced Vital Capacity (FVC) (lung function; Cohort 2: 200 mg BID, Cycle 21, Day 1): −3.0 (—) percent predicted FVC
Change From Baseline in Percent Predicted Forced Vital Capacity (FVC) (lung function; Cohort 2: 200 mg BID, Cycle 22, Day 1): −11.0 (0.0) percent predicted FVC
Change From Baseline in Percent Predicted Forced Vital Capacity (FVC) (lung function; Cohort 2: 200 mg BID, Cycle 23, Day 1): −11.0 (2.8) percent predicted FVC
Change From Baseline in Percent Predicted Forced Vital Capacity (FVC) (lung function; Cohort 2: 200 mg BID, Cycle 24, Day 1): −13.0 (—) percent predicted FVC
Change From Baseline in Percent Predicted Forced Vital Capacity (FVC) (lung function; Cohort 2: 200 mg BID, Cycle 25, Day 1): −10.5 (3.5) percent predicted FVC
Change From Baseline in Percent Predicted Forced Vital Capacity (FVC) (lung function; Cohort 2: 200 mg BID, Cycle 27, Day 1): −18.0 (12.7) percent predicted FVC
Change From Baseline in Percent Predicted Forced Vital Capacity (FVC) (lung function; Cohort 2: 200 mg BID, Cycle 29, Day 1): −11.0 (—) percent predicted FVC
Change From Baseline in Percent Predicted Forced Vital Capacity (FVC) (lung function; Cohort 2: 200 mg BID, Cycle 31, Day 1): −15.5 (7.8) percent predicted FVC
Change From Baseline in Percent Predicted Forced Vital Capacity (FVC) (lung function; Cohort 2: 200 mg BID, Cycle 33, Day 1): −17.5 (7.8) percent predicted FVC
Change From Baseline in Percent Predicted Forced Vital Capacity (FVC) (lung function; Cohort 2: 200 mg BID, Cycle 35, Day 1): −15.0 (11.3) percent predicted FVC
Change From Baseline in Percent Predicted Forced Vital Capacity (FVC) (lung function; Cohort 2: 200 mg BID, EOT): −8.4 (9.2) percent predicted FVC
Change From Baseline in Percent Predicted Forced Vital Capacity (FVC) (lung function; Cohort 3: 400 mg QD, Cycle 2, Day 1): −5.5 (9.9) percent predicted FVC
Change From Baseline in Percent Predicted Forced Vital Capacity (FVC) (lung function; Cohort 3: 400 mg QD, Cycle 3, Day 1): −3.0 (6.7) percent predicted FVC
Change From Baseline in Percent Predicted Forced Vital Capacity (FVC) (lung function; Cohort 3: 400 mg QD, Cycle 4, Day 1): −0.2 (8.6) percent predicted FVC
Change From Baseline in Percent Predicted Forced Vital Capacity (FVC) (lung function; Cohort 3: 400 mg QD, Cycle 5, Day 1): 1.6 (6.3) percent predicted FVC
Change From Baseline in Percent Predicted Forced Vital Capacity (FVC) (lung function; Cohort 3: 400 mg QD, Cycle 6, Day 1): 0.8 (9.5) percent predicted FVC
Change From Baseline in Percent Predicted Forced Vital Capacity (FVC) (lung function; Cohort 3: 400 mg QD, Cycle 7, Day 1): 2.3 (9.7) percent predicted FVC
Change From Baseline in Percent Predicted Forced Vital Capacity (FVC) (lung function; Cohort 3: 400 mg QD, Cycle 8, Day 1): 0.4 (8.9) percent predicted FVC
Change From Baseline in Percent Predicted Forced Vital Capacity (FVC) (lung function; Cohort 3: 400 mg QD, Cycle 9, Day 1): −0.8 (9.5) percent predicted FVC
Change From Baseline in Percent Predicted Forced Vital Capacity (FVC) (lung function; Cohort 3: 400 mg QD, Cycle 10, Day 1): 4.7 (4.9) percent predicted FVC
Change From Baseline in Percent Predicted Forced Vital Capacity (FVC) (lung function; Cohort 3: 400 mg QD, Cycle 11, Day 1): −4.4 (12.0) percent predicted FVC
Change From Baseline in Percent Predicted Forced Vital Capacity (FVC) (lung function; Cohort 3: 400 mg QD, Cycle 12, Day 1): 0.7 (5.8) percent predicted FVC
Change From Baseline in Percent Predicted Forced Vital Capacity (FVC) (lung function; Cohort 3: 400 mg QD, Cycle 13, Day 1): −4.9 (9.8) percent predicted FVC
Change From Baseline in Percent Predicted Forced Vital Capacity (FVC) (lung function; Cohort 3: 400 mg QD, Cycle 14, Day 1): −2.7 (7.1) percent predicted FVC
Change From Baseline in Percent Predicted Forced Vital Capacity (FVC) (lung function; Cohort 3: 400 mg QD, Cycle 15, Day 1): −4.8 (11.5) percent predicted FVC
Change From Baseline in Percent Predicted Forced Vital Capacity (FVC) (lung function; Cohort 3: 400 mg QD, Cycle 16, Day 1): −6.5 (6.5) percent predicted FVC
Change From Baseline in Percent Predicted Forced Vital Capacity (FVC) (lung function; Cohort 3: 400 mg QD, Cycle 17, Day 1): −5.6 (12.8) percent predicted FVC
Change From Baseline in Percent Predicted Forced Vital Capacity (FVC) (lung function; Cohort 3: 400 mg QD, Cycle 18, Day 1): 4.0 (4.0) percent predicted FVC
Change From Baseline in Percent Predicted Forced Vital Capacity (FVC) (lung function; Cohort 3: 400 mg QD, Cycle 19, Day 1): 0.8 (5.1) percent predicted FVC
Change From Baseline in Percent Predicted Forced Vital Capacity (FVC) (lung function; Cohort 3: 400 mg QD, Cycle 20, Day 1): −2.0 (5.6) percent predicted FVC
Change From Baseline in Percent Predicted Forced Vital Capacity (FVC) (lung function; Cohort 3: 400 mg QD, Cycle 21, Day 1): −6.6 (17.0) percent predicted FVC
Change From Baseline in Percent Predicted Forced Vital Capacity (FVC) (lung function; Cohort 3: 400 mg QD, Cycle 22, Day 1): −6.0 (8.5) percent predicted FVC
Change From Baseline in Percent Predicted Forced Vital Capacity (FVC) (lung function; Cohort 3: 400 mg QD, Cycle 23, Day 1): −1.8 (10.6) percent predicted FVC
Change From Baseline in Percent Predicted Forced Vital Capacity (FVC) (lung function; Cohort 3: 400 mg QD, Cycle 24, Day 1): −15.0 (—) percent predicted FVC
Change From Baseline in Percent Predicted Forced Vital Capacity (FVC) (lung function; Cohort 3: 400 mg QD, Cycle 25, Day 1): −1.3 (11.7) percent predicted FVC
Change From Baseline in Percent Predicted Forced Vital Capacity (FVC) (lung function; Cohort 3: 400 mg QD, Cycle 27, Day 1): −4.0 (21.2) percent predicted FVC
Change From Baseline in Percent Predicted Forced Vital Capacity (FVC) (lung function; Cohort 3: 400 mg QD, Cycle 29, Day 1): 6.0 (1.4) percent predicted FVC
Change From Baseline in Percent Predicted Forced Vital Capacity (FVC) (lung function; Cohort 3: 400 mg QD, Cycle 31, Day 1): −4.0 (—) percent predicted FVC
Change From Baseline in Percent Predicted Forced Vital Capacity (FVC) (lung function; Cohort 3: 400 mg QD, Cycle 35, Day 1): −3.0 (—) percent predicted FVC
Change From Baseline in Percent Predicted Forced Vital Capacity (FVC) (lung function; Cohort 3: 400 mg QD, Cycle 36, Day 1): 2.0 (—) percent predicted FVC
Change From Baseline in Percent Predicted Forced Vital Capacity (FVC) (lung function; Cohort 3: 400 mg QD, Cycle 49, Day 1): 2.0 (—) percent predicted FVC
Change From Baseline in Percent Predicted Forced Vital Capacity (FVC) (lung function; Cohort 3: 400 mg QD, EOT): −7.8 (14.7) percent predicted FVC
inhibition of UGT1A9 (UGT1A9): inhibitor
